Reference: US11242337B2, “Compounds useful for treating gastrointestinal tract disorders” (Ardelyx, Inc., priority 2017, dated 2022)
Read-outs that look alike come from different tables or passages of the source.

Assays:
[1] = tested on: human duodenum monolayer culture; experiment: Sustained inhibition of apical acid secretion in human organoid monolayer cell cultures (duodenum); type: cell-based; settings: for inhibition at 1 µM: Homo sapiens
How it was run: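 Duodenum organoid cells were plated on Transwells, differentiated with EGF/noggin/A83-01 from day 3, and dosed apically on day 6 with compound at 1 μM final (DMSO vehicle control), in duplicate wells, at 37° C, 5% CO2. Apical media pH was measured by electrode on day 8.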

[2] = tested on: human ileum monolayer culture; experiment: Sustained inhibition of apical acid secretion in human organoid monolayer cell cultures (ileum); type: cell-based; settings: 1 μM apical, dosed day 6, apical media pH day 8, vs DMSO; for inhibition at 1 µM: Homo sapiens, 48 h
How it was run: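 Human ileum organoid-derived Transwell monolayers, differentiated with ENRA from day 3, received 1 μM compound apically on day 6 (DMSO vehicle, duplicate wells). Apical medium pH was measured by electrode on day 8 as a readout of sustained NHE3-mediated proton secretion inhibition.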

[3] = tested on: absorption of sodium from the intestinal lumen; experiment: Inhibition of intestinal sodium absorption in mice; type: in vivo; settings: CD-1 mice, 15 mg/kg oral gavage twice daily; for Fecal fluid content (Δ from vehicle): day 3, change from vehicle group mean; for response vs control in vivo at 15 mg/kg: Mus musculus, 72 h
How it was run: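 Male ~8-week CD-1 mice on chow with added 0.4% inorganic phosphorous, in metabolic cages after 3-day acclimation and 24-hr baseline collection. Urine sodium by ion chromatography, dried fecal sodium by MP-AES; day-3 24-hour excretion normalized to dietary sodium intake and expressed as % of vehicle mean; diarrhea and fecal fluid also recorded.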

[4] = day 3, normalized to dietary sodium intake, read-out: Fecal Na Excretion (% of vehicle)
[5] = day 3, normalized to dietary sodium intake, read-out: Urinary Na Excretion (% of vehicle)
[6] = day 3, normalized to dietary sodium intake

| Compound | inhibition at 1 µM [1] | inhibition at 1 µM [2] | Fecal fluid content (Δ from vehicle) [3] | response vs control in vivo at 15 mg/kg [3, 4] | response vs control in vivo at 15 mg/kg [3, 5] | % inhibition (duodenum) ([1]; 1 μM apical, inhibition of apical acid secretion vs DMSO) | % inhibition (ileum) [2] | Fecal Na Excretion (% of vehicle) [3, 6] | Urinary Na Excretion (% of vehicle) [3, 6] |
| --- | --- | --- | --- | --- | --- | --- | --- | --- | --- |
| Cc1cc(S(=O)(=O)NCCOCCOCCNC(=O)NCCCCNC(=O)NCCOCCOCCNS(=O)(=O)c2ccc(O[C@H]3c4cc(Cl)cc(Cl)c4C[C@@H]3N3CCC[C@@H](N(C)C)C3)c(C)c2)ccc1O[C@H]1c2cc(Cl)cc(Cl)c2C[C@@H]1N1CCC[C@@H](N(C)C)C1 [Example 26, 3-[2-(2-[2-[(4-[[(1S,2S)-4,6-Dichloro-2-[(3R)-3-(dimethylamino)piperidin-1-yl]-2,3-dihydro-1H-inden-1-yl]oxy]-3-methylbenzene)sulfonamido]ethoxy]ethoxy)ethyl]-1-[4-([[2-(2-[2-[4-[[(1S,2S)-4,6-dichloro-2-[(3R)-3-(dimethylamino)piperidin-1-yl]-2,3-dihydro-1H-inden-1-yl]oxy]-3-methylbenzenesulfonamido]ethoxy]ethoxy)ethyl]carbamoyl]amino)butyl]urea; bis(trifluoroacetic acid)] | 50 to 70% | 50 to 70% | B (5-10) | 150 to 200% | 50 to 70% | – | – | – | – |
| O=C(NCCCCNC(=O)NCCOCCOCCNS(=O)(=O)c1ccc(O[C@H]2c3cc(Cl)cc(Cl)c3C[C@@H]2N2CCNCC2)cc1)NCCOCCOCCNS(=O)(=O)c1ccc(O[C@H]2c3cc(Cl)cc(Cl)c3C[C@@H]2N2CCNCC2)cc1 [Example 31, 3-[2-(2-[2-[(4-[[(1S,2S)-4,6-Dichloro-2-(piperazin-1-yl)-2,3-dihydro-1H-inden-1-yl]oxy]benzene)sulfonamido]ethoxy]ethoxy)ethyl]-1-[4-([[2-(2-[2-[(4-[[(1S,2S)-4,6-dichloro-2-(piperazin-1-yl)-2,3-dihydro-1H-inden-1-yl]oxy]benzene)sulfonamido]ethoxy]ethoxy)ethyl]carbamoyl]amino)butyl]urea; bis(trifluoroacetic acid)] | > 70% | > 70% | B (5-10) | > 200% | 50 to 70% | – | – | – | – |
| O=C(NCCCCNC(=O)NCCOCCOCCNS(=O)(=O)c1ccc(O[C@H]2c3cc(Cl)cc(Cl)c3C[C@@H]2N2CCNCC2)c(F)c1)NCCOCCOCCNS(=O)(=O)c1ccc(O[C@H]2c3cc(Cl)cc(Cl)c3C[C@@H]2N2CCNCC2)c(F)c1 [Example 33, 3-[2-(2-[2-[(4-[[(1S,2S)-4,6-Dichloro-2-(piperazin-1-yl)-2,3-dihydro-1H-inden-1-yl]oxy]-3-fluorobenzene)sulfonamido]ethoxy]ethoxy)ethyl]-1-[4-[[(2-(2-[2-[(4-[[(1S,2S)-4,6-dichloro-2-(piperazin-1-yl)-2,3-dihydro-1H-inden-1-y]oxy]-3-fluorobenzene)sulfonamido]ethoxy]ethoxy)ethyl]carbamoyl]amino)butyl]urea; bis(trifluoroacetic acid)] | > 70% | > 70% | C (>10) | > 200% | < 50% | – | – | – | – |
| 3-[2-(2-[2-[(4-[[(1S,2S)-4,6-Dichloro-2-[(3R)-3-[methyl(propan-2-yl)amino]piperidin-1-yl]-2,3-dihydro-1H-inden-1-yl]oxy]benzene) sulfonamido]ethoxy]ethoxy)ethyl]-1-[4-([[2-(2-[2-[(4-[[(1S,2S)-4,6-dichloro-2-[(3R)-3-[methyl(propan-2-yl)amino]piperidin-1-yl]-2,3-dihydro-1H-inden-1-yl]oxy]benzene)sulfonamido]ethoxy]ethoxy)ethyl]carbamoyl]amino)butyl]urea; bis(trifluoroacetic acid) [Example 78] | – | – | A (<5) | – | – | C (>70%) | C (>70%) | A (<150%) | A (>70%) |
